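Assay format: 96-well plates, 48-hour exposure. Abbreviation: GI50, concentration required for 50% inhibition of growth. The concentration for full growth arrest is given as TGI.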
Columns and labels:
Assay in all cases: growth of human tumour cells (NCI), 48 h
SK-MEL-5 melanoma = system: SK-MEL-5 melanoma
OVCAR-8 ovarian = system: OVCAR-8 ovarian
U251 CNS = system: U251 CNS
SN12C renal = system: SN12C renal
UO-31 renal = system: UO-31 renal
SF-539 CNS = system: SF-539 CNS
NCI-H522 lung = system: NCI-H522 lung
SF-268 CNS = system: SF-268 CNS
A498 renal = system: A498 renal
T-47D breast = system: T-47D breast
MCF7 breast = system: MCF7 breast
SF-295 CNS = system: SF-295 CNS
UACC-257 melanoma = system: UACC-257 melanoma
PC-3 prostate = system: PC-3 prostate
NCI-H23 lung = system: NCI-H23 lung
MDA-N = system: MDA-N

Which TGI (SK-MEL-5 melanoma) does the source give for COc1cc(Cn2c3ccccc3c3cc(C)cc(OC)c32)cc2c1[nH]c1ccccc12 here?
The TGI was over 25 µM.

What about the TGI (OVCAR-8 ovarian) of the same compound?
The TGI was over 25 µM.

And the TGI (U251 CNS)?
The TGI was over 25 µM.

And the TGI (SN12C renal)?
The TGI was over 25 µM.

What about the TGI (UO-31 renal) of the same compound?
Its TGI is over 25 µM.

And the GI50 (SF-539 CNS)?
The GI50 was 9.83 µM.

And the TGI (SF-539 CNS)?
The TGI was over 25 µM.

And the GI50 (NCI-H522 lung)?
Its GI50 is 5.43 µM.

What about the TGI (NCI-H522 lung) of the same compound?
The TGI was 21 µM.

And the GI50 (SF-268 CNS)?
Its GI50 is 17.5 µM.

What about the TGI (SF-268 CNS) of the same compound?
The TGI was over 25 µM.

Which results are given for O=C(Nc1ccccc1)c1cc2cc(CCl)ccc2oc1=O?
TGI (SK-MEL-5 melanoma): > 100 µM; TGI (A498 renal): 26.1 µM; TGI (T-47D breast): > 100 µM; TGI (MCF7 breast): 82.9 µM; TGI (OVCAR-8 ovarian): > 100 µM; TGI (U251 CNS): > 100 µM; TGI (SF-295 CNS): > 100 µM; TGI (SN12C renal): > 100 µM; TGI (UO-31 renal): > 100 µM; TGI (UACC-257 melanoma): > 100 µM; TGI (PC-3 prostate): > 100 µM; TGI (NCI-H23 lung): > 100 µM; TGI (NCI-H522 lung): > 100 µM; TGI (SF-268 CNS): > 100 µM

Nc1nc(N)c2c(-c3ccccc3)ccnc2n1 was tested. Which TGI (SK-MEL-5 melanoma) did it give?
Its TGI is over 100 µM.

What about the TGI (A498 renal) of the same compound?
Its TGI is over 100 µM.

What about the TGI (MCF7 breast) of the same compound?
The TGI was over 100 µM.

And the TGI (U251 CNS)?
Its TGI is over 100 µM.

What about the TGI (SF-295 CNS) of the same compound?
Its TGI is over 100 µM.

And the TGI (SN12C renal)?
The TGI was over 100 µM.

And the TGI (UO-31 renal)?
Its TGI is over 100 µM.

And the TGI (UACC-257 melanoma)?
The TGI was over 100 µM.

And the TGI (PC-3 prostate)?
The TGI was over 100 µM.

And the TGI (MDA-N)?
The TGI was over 100 µM.

And the TGI (NCI-H23 lung)?
The TGI was over 100 µM.

What about the TGI (NCI-H522 lung) of the same compound?
Its TGI is over 100 µM.

What about the TGI (SF-268 CNS) of the same compound?
Its TGI is over 100 µM.

O=C(/C=C/c1ccc(Cl)cc1)c1nc2ccccc2[nH]1 was tested. Which TGI (SK-MEL-5 melanoma) did it give?
The TGI was over 100 µM.

And the TGI (A498 renal)?
Its TGI is over 100 µM.

What about the TGI (T-47D breast) of the same compound?
The TGI was 38.9 µM.

What about the TGI (MCF7 breast) of the same compound?
Its TGI is 9.04 µM.

And the TGI (OVCAR-8 ovarian)?
Its TGI is over 100 µM.

And the TGI (SF-295 CNS)?
The TGI was over 100 µM.

And the TGI (SN12C renal)?
Its TGI is over 100 µM.

And the TGI (UO-31 renal)?
The TGI was 24 µM.

What about the TGI (UACC-257 melanoma) of the same compound?
The TGI was over 100 µM.

What about the TGI (PC-3 prostate) of the same compound?
Its TGI is over 100 µM.

And the TGI (SF-539 CNS)?
The TGI was 50.6 µM.

What about the TGI (NCI-H23 lung) of the same compound?
The TGI was over 100 µM.

What about the TGI (NCI-H522 lung) of the same compound?
Its TGI is over 100 µM.

What about the TGI (SF-268 CNS) of the same compound?
The TGI was over 100 µM.

Which TGI (SK-MEL-5 melanoma) does the source give for CC(C)(Cl)C(Cl)CC/C(CBr)=C(\Cl)CBr (stereo not given) here?
Its TGI is 3.74 µM.

What about the TGI (A498 renal) of the same compound?
Its TGI is over 58.2 µM.

What about the TGI (MCF7 breast) of the same compound?
Its TGI is 6.97 µM.

What about the TGI (OVCAR-8 ovarian) of the same compound?
The TGI was 3.92 µM.

What about the TGI (U251 CNS) of the same compound?
The TGI was 3.57 µM.

And the TGI (SF-295 CNS)?
Its TGI is 16 µM.

And the TGI (SN12C renal)?
Its TGI is 6.15 µM.

And the TGI (UO-31 renal)?
Its TGI is 8.86 µM.

What about the TGI (UACC-257 melanoma) of the same compound?
The TGI was 5.09 µM.

And the TGI (PC-3 prostate)?
The TGI was 8.56 µM.

And the TGI (MDA-N)?
Its TGI is 3.65 µM.

And the TGI (SF-539 CNS)?
The TGI was 5.53 µM.

What about the TGI (NCI-H23 lung) of the same compound?
The TGI was 3.77 µM.

And the TGI (NCI-H522 lung)?
Its TGI is 3.09 µM.

And the TGI (SF-268 CNS)?
The TGI was 7.67 µM.

CC(C)(C)C1CCC2c3c([nH]c4ccccc34)C3C(=O)N(c4cc(Cl)ccc4Cl)C(=O)C3C2C1 (stereo not given) was tested. Which TGI (SK-MEL-5 melanoma) did it give?
The TGI was over 100 µM.

What about the TGI (A498 renal) of the same compound?
Its TGI is over 100 µM.

And the TGI (MCF7 breast)?
Its TGI is over 100 µM.

And the TGI (OVCAR-8 ovarian)?
Its TGI is over 100 µM.

What about the TGI (SF-295 CNS) of the same compound?
The TGI was over 100 µM.

What about the TGI (SN12C renal) of the same compound?
Its TGI is over 100 µM.

And the TGI (UO-31 renal)?
The TGI was over 100 µM.

And the TGI (UACC-257 melanoma)?
The TGI was over 100 µM.

And the TGI (PC-3 prostate)?
Its TGI is over 100 µM.

What about the TGI (MDA-N) of the same compound?
The TGI was over 100 µM.

And the TGI (SF-539 CNS)?
The TGI was over 100 µM.

What about the TGI (NCI-H23 lung) of the same compound?
The TGI was over 100 µM.

COc1ccccc1/C=C1\CCC(CN2CCOCC2)C1=O (stereo not given) was tested. Which TGI (SK-MEL-5 melanoma) did it give?
The TGI was 28.7 µM.

What about the TGI (A498 renal) of the same compound?
The TGI was 32.4 µM.

What about the TGI (MCF7 breast) of the same compound?
The TGI was 21.8 µM.

What about the TGI (OVCAR-8 ovarian) of the same compound?
The TGI was 16.9 µM.

What about the TGI (U251 CNS) of the same compound?
Its TGI is 34.2 µM.

What about the TGI (SF-295 CNS) of the same compound?
The TGI was 34.6 µM.

What about the TGI (SN12C renal) of the same compound?
Its TGI is 16.2 µM.

What about the TGI (UO-31 renal) of the same compound?
The TGI was 31.4 µM.

And the TGI (UACC-257 melanoma)?
The TGI was 23.9 µM.

And the TGI (PC-3 prostate)?
Its TGI is 30 µM.

And the TGI (MDA-N)?
Its TGI is 26.9 µM.

And the TGI (SF-539 CNS)?
Its TGI is 28.6 µM.

What about the TGI (NCI-H23 lung) of the same compound?
Its TGI is 43.5 µM.

And the TGI (NCI-H522 lung)?
The TGI was 3.8 µM.

And the TGI (SF-268 CNS)?
The TGI was 41.7 µM.

Which results are given for C[C@H]1[C@H](C)CC[C@]2(C(=O)O)CCC3(COC(=O)/C=C/c4ccc(O)cc4)C(=CCC4[C@@]5(C)CC[C@H](O)C(C)(C)C5CC[C@]43C)[C@H]12 (stereo not given in full)?
TGI (SK-MEL-5 melanoma): 24.4 µM; TGI (A498 renal): 15.3 µM; TGI (OVCAR-8 ovarian): 26.5 µM; TGI (U251 CNS): 9.92 µM; TGI (SF-295 CNS): 13.2 µM; TGI (SN12C renal): 20.8 µM; TGI (UO-31 renal): 15.6 µM; TGI (UACC-257 melanoma): 31.5 µM; TGI (SF-539 CNS): 16.5 µM; TGI (NCI-H522 lung): 17.1 µM; TGI (SF-268 CNS): 22.5 µM
